Values belong to the compound of their own block, whether it stands above or below them.
Key:
CRK2 (P.falciparum) = CRK2 (P.falciparum) (UniProt P61075); assay: KINOMEscan competition binding; settings: compound 10.0 µM
TAOK2 (human) = TAOK2 (human) (UniProt Q9UL54); assay: KINOMEscan competition binding; settings: compound 10.0 µM
CAMK1G (human) = CAMK1G (human) (UniProt Q96NX5); assay: KINOMEscan competition binding; settings: compound 10.0 µM
MAP3K12 (human) = MAP3K12 (human) (UniProt Q12852); assay: KINOMEscan competition binding
TNK2 (human) = TNK2 (human) (UniProt Q07912); assay: KINOMEscan competition binding
CPK1 (P.falciparum) = assay: KINOMEscan competition binding; settings: compound 10.0 µM
MYLK3 (human) = MYLK3 (human) (UniProt Q32MK0); assay: KINOMEscan competition binding
PDPK1 (human) [1] = biological target: PDPK1 (human) (UniProt O15530); assay: SelectScreen, TR FRET; settings: compound 1.0 µM
BMPR1A (human) = BMPR1A (human) (UniProt P36894); assay: KINOMEscan competition binding; settings: compound 1.0 µM
TAOK1 (human) = TAOK1 (human) (UniProt Q7L7X3); assay: KINOMEscan competition binding; settings: compound 1.0 µM
CHEK2 (human) = CHEK2 (human) (UniProt O96017); assay: SelectScreen, TR FRET; settings: compound 1.0 µM
KDR (human) = KDR (human) (UniProt P35968); assay: SelectScreen, TR FRET; settings: compound 1.0 µM
PDGFRB (human) = PDGFRB (human) (UniProt P09619); assay: SelectScreen, TR FRET; settings: compound 1.0 µM
EPHA1 (human) = EPHA1 (human) (UniProt P21709); assay: SelectScreen, TR FRET; settings: compound 1.0 µM
FLT4 (human) = FLT4 (human) (UniProt P35916); assay: SelectScreen, TR FRET; settings: compound 1.0 µM
AKT1 (human) = AKT1 (human) (UniProt P31749); assay: SelectScreen, TR FRET; settings: compound 1.0 µM
PDGFRA (human) = PDGFRA (human) (UniProt P16234); assay: SelectScreen, TR FRET; settings: compound 1.0 µM
AURKA (human) = AURKA (human) (UniProt O14965); assay: SelectScreen, TR FRET; settings: compound 1.0 µM
SBK1 (human) = SBK1 (human) (UniProt Q52WX2); assay: KINOMEscan competition binding
PRKACA (human) [2] = biological target: PRKACA (human) (UniProt P17612); assay: KINOMEscan competition binding
CSNK1A1L (human) = CSNK1A1L (human) (UniProt Q8N752); assay: KINOMEscan competition binding
MAPK9 (human) = MAPK9 (human) (UniProt P45984)
PRKACA (human) [3] = biological target: PRKACA (human) (UniProt P17612)
PDPK1 (human) [4] = biological target: PDPK1 (human) (UniProt O15530)

Sequence of PDPK1 (human) (O15530 whole entry, looked up): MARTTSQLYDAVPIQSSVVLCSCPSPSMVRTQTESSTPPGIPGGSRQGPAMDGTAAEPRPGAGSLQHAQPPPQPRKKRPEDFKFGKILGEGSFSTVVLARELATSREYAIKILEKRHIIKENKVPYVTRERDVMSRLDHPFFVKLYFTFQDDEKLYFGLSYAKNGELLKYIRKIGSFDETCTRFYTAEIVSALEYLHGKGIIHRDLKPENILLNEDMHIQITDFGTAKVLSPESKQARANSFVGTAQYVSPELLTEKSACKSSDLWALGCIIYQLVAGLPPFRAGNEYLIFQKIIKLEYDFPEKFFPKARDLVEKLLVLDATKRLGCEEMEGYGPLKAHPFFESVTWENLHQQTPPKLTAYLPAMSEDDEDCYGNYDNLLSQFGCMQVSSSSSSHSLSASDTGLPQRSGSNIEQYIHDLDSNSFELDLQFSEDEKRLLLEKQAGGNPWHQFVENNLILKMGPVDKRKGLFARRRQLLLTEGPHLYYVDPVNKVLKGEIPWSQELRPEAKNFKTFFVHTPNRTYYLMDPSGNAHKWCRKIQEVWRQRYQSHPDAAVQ
Sequence of MAP3K12 (human) (Q12852 whole entry, looked up): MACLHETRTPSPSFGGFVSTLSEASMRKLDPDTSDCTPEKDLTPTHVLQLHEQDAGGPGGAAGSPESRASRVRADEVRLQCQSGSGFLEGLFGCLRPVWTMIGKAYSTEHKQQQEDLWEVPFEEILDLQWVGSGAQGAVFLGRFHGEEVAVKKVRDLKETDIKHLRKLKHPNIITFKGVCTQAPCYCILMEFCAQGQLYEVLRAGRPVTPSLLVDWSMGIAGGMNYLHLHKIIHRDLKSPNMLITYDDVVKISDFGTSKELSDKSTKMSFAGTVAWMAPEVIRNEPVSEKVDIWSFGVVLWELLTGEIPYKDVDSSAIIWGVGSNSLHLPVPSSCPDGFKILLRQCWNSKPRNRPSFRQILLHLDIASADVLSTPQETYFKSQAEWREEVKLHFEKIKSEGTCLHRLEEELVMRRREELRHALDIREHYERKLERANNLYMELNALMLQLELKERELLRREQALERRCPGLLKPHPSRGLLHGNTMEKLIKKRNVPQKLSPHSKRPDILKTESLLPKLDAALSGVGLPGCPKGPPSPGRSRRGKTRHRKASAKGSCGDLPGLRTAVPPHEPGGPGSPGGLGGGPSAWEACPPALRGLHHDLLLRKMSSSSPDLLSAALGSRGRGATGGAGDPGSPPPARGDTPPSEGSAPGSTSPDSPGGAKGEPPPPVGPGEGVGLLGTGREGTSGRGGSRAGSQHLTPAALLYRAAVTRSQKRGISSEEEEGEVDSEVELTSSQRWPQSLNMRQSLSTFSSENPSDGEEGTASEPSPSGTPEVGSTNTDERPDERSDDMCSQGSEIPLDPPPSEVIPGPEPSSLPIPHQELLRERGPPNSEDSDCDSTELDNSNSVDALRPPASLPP
Sequence of MYLK3 (human) (Q32MK0 whole entry, looked up): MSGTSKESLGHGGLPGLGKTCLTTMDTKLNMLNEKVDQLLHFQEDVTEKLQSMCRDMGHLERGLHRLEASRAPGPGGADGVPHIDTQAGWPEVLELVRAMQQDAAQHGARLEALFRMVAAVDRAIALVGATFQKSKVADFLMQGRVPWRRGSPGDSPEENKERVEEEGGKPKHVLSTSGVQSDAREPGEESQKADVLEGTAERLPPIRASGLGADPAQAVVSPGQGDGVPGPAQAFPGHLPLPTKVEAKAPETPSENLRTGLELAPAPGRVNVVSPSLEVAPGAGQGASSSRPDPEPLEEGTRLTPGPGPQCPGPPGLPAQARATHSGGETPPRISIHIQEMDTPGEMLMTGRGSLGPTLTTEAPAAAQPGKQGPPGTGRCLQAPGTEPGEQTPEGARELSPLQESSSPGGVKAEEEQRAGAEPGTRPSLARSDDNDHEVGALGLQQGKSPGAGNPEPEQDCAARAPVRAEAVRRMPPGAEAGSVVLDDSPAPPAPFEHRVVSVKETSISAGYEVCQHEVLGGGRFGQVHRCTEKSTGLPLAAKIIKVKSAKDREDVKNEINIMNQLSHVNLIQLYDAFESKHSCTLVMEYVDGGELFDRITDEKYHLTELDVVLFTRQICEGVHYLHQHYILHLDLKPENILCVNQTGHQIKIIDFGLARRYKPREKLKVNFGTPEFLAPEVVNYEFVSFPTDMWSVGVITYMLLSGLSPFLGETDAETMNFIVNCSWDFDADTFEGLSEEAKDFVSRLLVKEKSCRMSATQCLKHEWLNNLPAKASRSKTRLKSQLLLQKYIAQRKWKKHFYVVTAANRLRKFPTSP
Sequence of TNK2 (human) (Q07912 whole entry, looked up): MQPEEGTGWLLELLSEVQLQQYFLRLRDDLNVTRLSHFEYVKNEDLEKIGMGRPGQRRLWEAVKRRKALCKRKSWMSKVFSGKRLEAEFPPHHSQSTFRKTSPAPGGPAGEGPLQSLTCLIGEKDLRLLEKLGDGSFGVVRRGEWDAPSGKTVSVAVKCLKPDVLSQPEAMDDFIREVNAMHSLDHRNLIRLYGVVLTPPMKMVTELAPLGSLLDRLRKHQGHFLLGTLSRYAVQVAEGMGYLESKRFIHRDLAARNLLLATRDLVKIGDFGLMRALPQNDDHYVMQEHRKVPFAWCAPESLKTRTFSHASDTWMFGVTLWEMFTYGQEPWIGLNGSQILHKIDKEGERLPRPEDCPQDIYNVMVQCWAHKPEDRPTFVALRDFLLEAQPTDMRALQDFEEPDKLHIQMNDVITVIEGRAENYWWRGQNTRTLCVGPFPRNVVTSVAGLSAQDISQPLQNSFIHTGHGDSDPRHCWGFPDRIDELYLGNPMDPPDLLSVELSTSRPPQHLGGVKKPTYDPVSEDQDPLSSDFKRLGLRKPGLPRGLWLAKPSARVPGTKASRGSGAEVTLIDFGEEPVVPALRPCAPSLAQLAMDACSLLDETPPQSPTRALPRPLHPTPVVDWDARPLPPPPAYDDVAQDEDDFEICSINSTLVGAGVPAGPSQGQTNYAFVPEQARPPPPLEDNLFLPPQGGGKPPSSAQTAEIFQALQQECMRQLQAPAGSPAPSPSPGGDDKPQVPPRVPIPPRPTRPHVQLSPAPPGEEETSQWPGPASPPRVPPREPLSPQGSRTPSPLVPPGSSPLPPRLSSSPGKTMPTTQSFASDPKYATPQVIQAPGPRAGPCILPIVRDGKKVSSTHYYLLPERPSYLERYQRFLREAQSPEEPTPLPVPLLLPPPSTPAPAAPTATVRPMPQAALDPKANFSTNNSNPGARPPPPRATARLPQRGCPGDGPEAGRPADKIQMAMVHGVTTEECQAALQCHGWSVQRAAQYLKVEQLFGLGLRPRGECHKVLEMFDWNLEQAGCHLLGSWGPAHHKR
Sequence of SBK1 (human) (Q52WX2 whole entry, looked up): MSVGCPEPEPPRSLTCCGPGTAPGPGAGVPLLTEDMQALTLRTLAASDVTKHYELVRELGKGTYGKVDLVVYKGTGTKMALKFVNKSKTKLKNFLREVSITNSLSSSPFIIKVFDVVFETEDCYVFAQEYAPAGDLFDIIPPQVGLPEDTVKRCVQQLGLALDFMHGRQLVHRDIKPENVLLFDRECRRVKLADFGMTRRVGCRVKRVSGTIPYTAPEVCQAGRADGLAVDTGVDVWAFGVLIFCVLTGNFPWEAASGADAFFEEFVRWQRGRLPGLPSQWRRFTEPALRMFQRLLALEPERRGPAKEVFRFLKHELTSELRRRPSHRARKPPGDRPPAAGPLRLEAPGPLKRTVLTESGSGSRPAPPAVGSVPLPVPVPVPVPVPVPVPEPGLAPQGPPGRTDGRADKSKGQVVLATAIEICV
Sequence of MAPK9 (human) (P45984 whole entry, looked up): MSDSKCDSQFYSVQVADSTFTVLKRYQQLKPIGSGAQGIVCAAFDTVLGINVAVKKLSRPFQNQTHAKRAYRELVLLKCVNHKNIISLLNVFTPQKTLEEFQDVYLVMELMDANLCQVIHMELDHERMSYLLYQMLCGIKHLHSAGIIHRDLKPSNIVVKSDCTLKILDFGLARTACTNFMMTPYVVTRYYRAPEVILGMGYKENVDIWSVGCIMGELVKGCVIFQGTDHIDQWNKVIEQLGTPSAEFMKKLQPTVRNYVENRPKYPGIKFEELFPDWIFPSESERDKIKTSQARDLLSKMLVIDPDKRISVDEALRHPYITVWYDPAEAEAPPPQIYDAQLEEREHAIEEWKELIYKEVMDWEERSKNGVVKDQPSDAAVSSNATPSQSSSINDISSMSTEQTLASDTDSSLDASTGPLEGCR
Sequence of AKT1 (human) (P31749 whole entry, looked up): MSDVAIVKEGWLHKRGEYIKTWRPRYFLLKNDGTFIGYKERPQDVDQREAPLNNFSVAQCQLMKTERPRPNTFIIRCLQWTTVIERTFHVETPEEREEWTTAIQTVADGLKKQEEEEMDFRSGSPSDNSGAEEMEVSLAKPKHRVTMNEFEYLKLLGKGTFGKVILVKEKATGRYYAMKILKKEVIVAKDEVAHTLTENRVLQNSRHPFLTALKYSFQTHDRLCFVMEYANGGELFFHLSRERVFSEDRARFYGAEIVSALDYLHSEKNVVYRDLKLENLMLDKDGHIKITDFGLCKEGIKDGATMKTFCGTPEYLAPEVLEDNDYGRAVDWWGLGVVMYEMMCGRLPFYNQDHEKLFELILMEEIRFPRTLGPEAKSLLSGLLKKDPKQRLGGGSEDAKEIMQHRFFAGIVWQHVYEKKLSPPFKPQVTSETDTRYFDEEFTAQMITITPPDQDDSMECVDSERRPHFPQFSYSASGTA
Sequence of CSNK1A1L (human) (Q8N752 whole entry, looked up): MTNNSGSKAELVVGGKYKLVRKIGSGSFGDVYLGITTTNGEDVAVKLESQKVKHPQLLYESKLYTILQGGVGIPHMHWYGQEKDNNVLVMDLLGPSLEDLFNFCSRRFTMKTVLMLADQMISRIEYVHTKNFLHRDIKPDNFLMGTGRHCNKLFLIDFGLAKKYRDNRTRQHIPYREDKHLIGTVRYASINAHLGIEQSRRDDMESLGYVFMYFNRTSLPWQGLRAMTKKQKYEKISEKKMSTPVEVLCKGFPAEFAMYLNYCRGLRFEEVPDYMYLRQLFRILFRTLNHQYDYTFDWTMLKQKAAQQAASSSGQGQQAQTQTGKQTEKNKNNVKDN

SMILES: O=C(Nc1cccnc1)c1cc(-c2ccnc(F)c2)ccc1OCc1ccccc1
kinase still bound, per cent of control (CRK2 (P.falciparum)): 100% | kinase still bound, per cent of control (TAOK2 (human)): 100% | kinase still bound, per cent of control (CAMK1G (human)): 100% | residual activity (MAP3K12 (human); compound 10.0 µM): 100% | kinase still bound, per cent of control (TNK2 (human); compound 10.0 µM): 100% | kinase still bound, per cent of control (CPK1 (P.falciparum)): 100% | kinase still bound, per cent of control (MYLK3 (human); compound 10.0 µM): 100%

SMILES: CC(C)(C)c1cc(NC(=O)NCc2ccc(-c3cc(NC(=O)c4ccc(OCCN5CCOCC5)cc4)[nH]n3)cc2)no1
inhibition (CHEK2 (human)): -10% | inhibition (KDR (human)): -99% | inhibition (PDGFRB (human)): -97% | inhibition (EPHA1 (human)): -20% | inhibition (FLT4 (human)): -86% | inhibition (AKT1 (human)): -17% | inhibition (PDGFRA (human)): -85% | inhibition (AURKA (human)): -48%

SMILES: CO[C@@H]1[C@H](N(C)C(=O)c2ccccc2)C[C@H]2O[C@]1(C)n1c3ccccc3c3c4c(c5c6ccccc6n2c5c31)C(=O)NC4O (some centres not stated)
Kd (SBK1 (human)): > 10 µM | Kd (PRKACA (human) [2]): > 10 µM | Kd (MAP3K12 (human)): > 10 µM | Kd (TNK2 (human)): 0.015 µM | Kd (CSNK1A1L (human)): > 10 µM | Kd (MYLK3 (human)): > 10 µM

SMILES: Cc1c(C(=O)N2CCOc3ccc(-c4ccc(N)nc4)cc3C2)ccc(S(C)(=O)=O)c1F
IC50 (MAPK9 (human)): > 10 µM | IC50 (PRKACA (human) [3]): > 10 µM | IC50 (PDPK1 (human) [4]): > 10 µM

Other lines, results leading:

residual activity (PDPK1 (human) [1]): 100%
SMILES: CC(C)(O)c1ccc(-c2cnc3c(n2)N(CC2CCOCC2)CC(=O)N3)cn1

kinase still bound, per cent of control (BMPR1A (human)): 100% | kinase still bound, per cent of control (TAOK1 (human)): 100%
SMILES: Nc1ccccc1Nc1ccc2c(c1)CCc1ccccc1C2=O
